Experimental data published in patent publication US20210215714A1, “COMPLEMENT ALTERNATIVE PATHWAY-ASSOCIATED NEPHROPATHY BIOMARKERS” (Achillion Pharmaceuticals, Inc., priority 2018, published 2021).

Experiments:
Format in all cases: in vivo, human
Conditions in all cases: 14-day treatment, patients A-F
C3 = experiment: Phase 2a study: C3 levels in serum
Description: (§1) Systemic complement proteins were measured in serum and plasma including serum Ba, plasma Bb, serum C3, serum Factor D, serum C4, and % Fragment C3.
(§2) C3 levels in serum were measured using a quantitative sandwich enzyme immunoassay technique. A monoclonal antibody specific for human C3 was pre-coated onto a micro-assay plate. Standards and samples were pipetted into the wells and any C3 present was bound by the immobilized antibody. After washing away any unbound substances, an enzyme-linked polyclonal antibody specific for human C3 was added to the wells. Following a wash to remove any unbound antibody-enzyme reagent, a substrate solution was added to the wells and color develops in proportion to the amount of C3 bound in the initial step. The color development was stopped and the intensity of the color was measured. […] Patients E and F show similar results.

C4 = experiment: Phase 2a study: C4 levels in serum
Description: as §1
C4 levels in serum were measured using a quantitative sandwich enzyme immunoassay technique. A monoclonal antibody specific for human C4 was pre-coated onto a micro-assay plate. Standards and samples were pipetted into the wells and any C4 present was bound by the immobilized antibody. After washing away any unbound substances, an enzyme-linked polyclonal antibody specific for human C4 was added to the wells. Following a wash to remove any unbound antibody-enzyme reagent, a substrate solution was added to the wells and color develops in proportion to the amount of C4 bound in the initial step. The color development was stopped and the intensity of the color was measured spectrophotometrically at 450 nm.

C3b/iC3b = experiment: Phase 2a study: % fragment C3
Description: as §1, §2

SMILES: CC(=O)c1nn(CC(=O)N2C[C@H](F)C[C@H]2C(=O)Nc2cccc(Br)n2)c2ccc(-c3cnc(C)nc3)cc12 [Compound 1, (2S,4R)-1-(2-(3-acetyl-5-(2-methylpyrimidin-5-yl)-1H-indazol-1-yl)acetyl)-N-(6-bromopyridin-2-yl)-4-fluoropyrrolidine-2-carboxamide]
- Serum C3 (C3): increased
- Serum C4 (C4): remained unchanged
- % fragment C3 (C3b/iC3b): reduced
